Results from patent US12319709B2, “Diaryl trehalose compounds and uses thereof” (THE UNIVERSITY OF MONTANA, priority 2018, dated 2025).

Tests used:
[1] = system: peripheral blood mononuclear cells (PBMCs); assay: IL-6 induction in fresh human PBMCs; assay type: cell-based; settings: for Maximum cytokine response h-IL-6 / Minimal Effective Concentration h-IL-6: human IL-6, NR = no response
Procedure: Tumor necrosis factor alpha (TNFα) and IL-6 production in peripheral blood mononuclear cells (PBMCs) was measured after exposure to various concentrations of the DAT compounds synthesized as shown above. Initial studies focused on two different methods of delivery of the DAT compounds to PBMC cultures. In the first delivery method, the indicated derivative compound was dissolved in isopropanol, serially diluted, and then dried to the bottom of a tissue culture plate. In the second delivery method, the indicated derivative compound was dissolved in DMSO and serially diluted into tissue culture media. In each method, PBMCs were added to the compounds and incubated at 37° C. TNFα (FIG. 1A) and IL-6 (FIG. 1B) were measured after 18-24 hours after treatment by ELISA assay.
The isolated PBMCs were exposed to increasing concentrations of the indicated compounds resuspended in DMSO and serially diluted in media. IL-6 levels were determined from supernatants eighteen hours after treatment (FIG. 3).

RAW264.7 cells = assay: Cytokine (TNFα) response of mouse macrophage cell line; Table 2 'Murine'; assay type: cell-based; parameters: Maximum cytokine response Murine: unit not given here; settings: NR = no response
Procedure: Compounds were also tested in a mouse macrophage cell line (FIG. 4B). RAW264.7 cells were subjected to increasing concentrations of the compounds and assessed for production of the cytokine TNFα.

Row | SMILES | Maximum cytokine response h-IL-6 [1] | Minimal Effective Concentration h-IL-6 [1] | Maximum cytokine response Murine (RAW264.7 cells) | Minimal Effective Concentration Murine (RAW264.7 cells) | IL-6 production / activity in fresh PBMCs from multiple donors (in words) ([1]; compounds in DMSO serially diluted in media, supernatants 18 h after treatment, listed as 1014) | Maximum cytokine response Murine (RAW264.7 cells; listed as 1014) | Minimal Effective Concentration Murine (RAW264.7 cells; listed as 1014)
1 | Cc1ccc(C(=O)OC[C@H]2O[C@H](O[C@H]3O[C@H](COC(=O)c4ccc(C)cc4C(F)(F)F)[C@@H](O)[C@H](O)[C@H]3O)[C@H](O)[C@@H](O)[C@@H]2O)c(C(F)(F)F)c1 [UM1085] | 3 OD | 100 µM | 2.2 | 33 µM |  |  | 
2 | CCCCCCOc1cc(OCCCCCC)cc(C(=O)OC[C@H]2O[C@H](O[C@H]3O[C@H](COC(=O)c4cc(OCCCCCC)cc(OCCCCCC)c4)[C@@H](O)[C@H](O)[C@H]3O)[C@H](O)[C@@H](O)[C@@H]2O)c1 [UM1092] | 3.3 OD | 3.7 µM | <.001 | 3.4 µM |  |  | 
3 | CCCCCCCCOc1cc(C(=O)OC[C@H]2O[C@H](O[C@H]3O[C@H](COC(=O)c4cc(OCCCCCCCC)c(OCCCCCCCC)c(OCCCCCCCC)c4)[C@@H](O)[C@H](O)[C@H]3O)[C@H](O)[C@@H](O)[C@@H]2O)cc(OCCCCCCCC)c1OCCCCCCCC [UM1098] | 3.4 OD | 11 µM | 0.04 | 3.4 µM |  |  | 
4 | CCCCOc1cc(OCCCC)cc(C(=O)OC[C@H]2O[C@H](O[C@H]3O[C@H](COC(=O)c4cc(OCCCC)cc(OCCCC)c4)[C@@H](O)[C@H](O)[C@H]3O)[C@H](O)[C@@H](O)[C@@H]2O)c1 [UM1051] | 2.5 OD | 6 µM | 1.3 | 0.13 µM |  |  | 
5 | COc1cc(OC)cc(C(=O)OC[C@H]2O[C@H](O[C@H]3O[C@H](COC(=O)c4cc(OC)cc(OC)c4)[C@@H](O)[C@H](O)[C@H]3O)[C@H](O)[C@@H](O)[C@@H]2O)c1 [UM1014] |  |  |  |  | inactive | 3.3 | 37 µM
6 | O=C(OC[C@H]1O[C@H](O[C@H]2O[C@H](COC(=O)c3cc(C(F)(F)F)ccc3C(F)(F)F)[C@@H](O)[C@H](O)[C@H]2O)[C@H](O)[C@@H](O)[C@@H]1O)c1cc(C(F)(F)F)ccc1C(F)(F)F [UM1066] | 2.6 OD | 33.3 µM | 3 | 100 µM |  |  | 
7 | CCOc1cc(C(=O)OC[C@H]2O[C@H](O[C@H]3O[C@H](CO)[C@@H](O)[C@H](O)[C@H]3O)[C@H](O)[C@@H](O)[C@@H]2O)cc(OCC)c1OCC [UM1120] | 0.3 OD | 100 µM | 11 | 2.5 µM |  |  | 
8 | O=C(OC[C@H]1O[C@H](O[C@H]2O[C@H](COC(=O)c3ccccc3Nc3ccccc3)[C@@H](O)[C@H](O)[C@H]2O)[C@H](O)[C@@H](O)[C@@H]1O)c1ccccc1Nc1ccccc1 [UM1075] | 3.5 OD | 20 µM | 2.2 | 3.7 µM |  |  | 
9 | CCCCCCOc1cc(C(=O)OC[C@H]2O[C@H](O[C@H]3O[C@H](COC(=O)c4cc(OCCCCCC)c(OCCCCCC)c(OCCCCCC)c4)[C@@H](O)[C@H](O)[C@H]3O)[C@H](O)[C@@H](O)[C@@H]2O)cc(OCCCCCC)c1OCCCCCC [UM1097] | 3.3 OD | 3.7 µM | 0.005 | 3.4 µM |  |  | 
10 | CC(C)(C)c1cc(C(C)(C)C)c(O)c(C(=O)OC[C@H]2O[C@H](O[C@H]3O[C@H](COC(=O)c4c(O)c(C(C)(C)C)cc(C(C)(C)C)c4O)[C@@H](O)[C@H](O)[C@H]3O)[C@H](O)[C@@H](O)[C@@H]2O)c1O [UM1046] | 3 OD | 20 µM | 0.8 | 0.4 µM |  |  | 
11 | CC(C)(C)c1cc(C(=O)NC[C@H]2O[C@H](O[C@H]3O[C@H](CNC(=O)c4cc(C(C)(C)C)cc(C(C)(C)C)c4O)[C@@H](O)[C@H](O)[C@H]3O)[C@H](O)[C@@H](O)[C@@H]2O)c(O)c(C(C)(C)C)c1 [UM1088] | 3.5 OD | 2.5 µM | 1.3 | 0.4 µM |  |  | 
12 | COc1cccc(/C=C/C(=O)OC[C@H]2O[C@H](O[C@H]3O[C@H](COC(=O)/C=C/c4cccc(OC)c4OC)[C@@H](O)[C@H](O)[C@H]3O)[C@H](O)[C@@H](O)[C@@H]2O)c1OC [UM1018] | 1.3 OD | 333 µM | 3.5 | 37 µM |  |  | 
13 | O=C(OC[C@H]1O[C@H](O[C@H]2O[C@H](COC(=O)c3c(C(F)(F)F)cccc3C(F)(F)F)[C@@H](O)[C@H](O)[C@H]2O)[C@H](O)[C@@H](O)[C@@H]1O)c1c(C(F)(F)F)cccc1C(F)(F)F [UM1065] | 3 OD | 3.7 µM | 2.5 | 100 µM |  |  | 
14 | Cc1cccc(Nc2ccccc2C(=O)OC[C@H]2O[C@H](O[C@H]3O[C@H](COC(=O)c4ccccc4Nc4cccc(C)c4C)[C@@H](O)[C@H](O)[C@H]3O)[C@H](O)[C@@H](O)[C@@H]2O)c1C [UM1074] | 3.5 OD | 33.3 µM | 2 | 1.2 µM |  |  | 
15 | CCCCCCCCOc1cc(OCCCCCCCC)cc(C(=O)OC[C@H]2O[C@H](O[C@H]3O[C@H](COC(=O)c4cc(OCCCCCCCC)cc(OCCCCCCCC)c4)[C@@H](O)[C@H](O)[C@H]3O)[C@H](O)[C@@H](O)[C@@H]2O)c1 [UM1093] | 3.4 OD | 1.2 µM | <.001 | 3.4 µM |  |  | 
16 | O=C(OC[C@H]1O[C@H](O[C@H]2O[C@H](COC(=O)c3ccccc3C(F)(F)F)[C@@H](O)[C@H](O)[C@H]2O)[C@H](O)[C@@H](O)[C@@H]1O)c1ccccc1C(F)(F)F [UM1042] | 2 OD | 50 µM | 0.9 | 11 µM |  |  | 
17 | Cc1cc(C(C)(C)C)cc(C)c1C(=O)OC[C@H]1O[C@H](O[C@H]2O[C@H](COC(=O)c3c(C)cc(C(C)(C)C)cc3C)[C@@H](O)[C@H](O)[C@H]2O)[C@H](O)[C@@H](O)[C@@H]1O [UM1116] | 2.3 OD | 100 µM | 0.005 | 3 µM |  |  | 
18 | CC(C)(C)c1cc(C(=O)OC[C@H]2O[C@H](O[C@H]3O[C@H](COC(=O)c4cc(C(C)(C)C)cc(C(C)(C)C)c4)[C@@H](O)[C@H](O)[C@H]3O)[C@H](O)[C@@H](O)[C@@H]2O)cc(C(C)(C)C)c1 [UM1047] | 1 OD | 11 µM | 0.9 | 1.2 µM |  |  | 
19 | CCCCCOc1cc(OCCCCC)cc(C(=O)NC[C@H]2O[C@H](O[C@H]3O[C@H](CNC(=O)c4cc(OCCCCC)cc(OCCCCC)c4)[C@@H](O)[C@H](O)[C@H]3O)[C@H](O)[C@@H](O)[C@@H]2O)c1 [UM1111] | 2.5 OD | 33.3 µM | 0.13 | 3.3 µM |  |  | 
